Four compounds from ChEMBL document CHEMBL1909046, “DrugMatrix in vitro pharmacology data” can be followed below.

One series addresses Histamine H2 receptor (Homo sapiens, UniProt P25021). It is filed as cell membranes, CHO-K1, Membrane. As to conditions: cho-k1.
The target of series [1] is T1, Type-2 angiotensin II receptor (Homo sapiens, UniProt P50052). Further: in other assays of this panel Not Active means under 50% inhibition at 10 µM.
T1 sequence (P50052 whole entry): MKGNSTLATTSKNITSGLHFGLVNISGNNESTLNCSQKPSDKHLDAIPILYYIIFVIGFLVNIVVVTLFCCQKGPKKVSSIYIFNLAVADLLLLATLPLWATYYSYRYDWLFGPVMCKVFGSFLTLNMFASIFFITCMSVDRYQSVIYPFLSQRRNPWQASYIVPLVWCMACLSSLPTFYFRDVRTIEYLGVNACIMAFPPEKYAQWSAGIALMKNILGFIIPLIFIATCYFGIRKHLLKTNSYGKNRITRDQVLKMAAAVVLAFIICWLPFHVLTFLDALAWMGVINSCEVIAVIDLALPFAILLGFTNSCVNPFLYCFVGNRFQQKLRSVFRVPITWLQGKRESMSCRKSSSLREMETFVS
It counts as cell-based. The following applies: cho-k1.

For a further series, the target named is T2, Substance-K receptor (Homo sapiens, UniProt P21452). Further: in other assays of this panel Not Active means under 50% inhibition at 10 µM.
T2 sequence (P21452 whole entry): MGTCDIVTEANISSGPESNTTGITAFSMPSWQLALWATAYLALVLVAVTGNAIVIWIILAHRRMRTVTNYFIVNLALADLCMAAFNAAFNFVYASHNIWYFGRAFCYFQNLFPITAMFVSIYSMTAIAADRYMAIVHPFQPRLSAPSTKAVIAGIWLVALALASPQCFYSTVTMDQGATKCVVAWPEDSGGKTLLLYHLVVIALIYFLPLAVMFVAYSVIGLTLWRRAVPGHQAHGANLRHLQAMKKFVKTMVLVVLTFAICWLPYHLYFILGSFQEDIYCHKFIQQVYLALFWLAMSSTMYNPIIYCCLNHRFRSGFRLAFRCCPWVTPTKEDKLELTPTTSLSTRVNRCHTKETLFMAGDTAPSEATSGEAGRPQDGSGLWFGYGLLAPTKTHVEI
It counts as cell membranes, CHO, Membrane. The following applies: cho.

The next series concerns the target T3, D(4) dopamine receptor (Homo sapiens, UniProt P21917).
T3 sequence (P21917 whole entry): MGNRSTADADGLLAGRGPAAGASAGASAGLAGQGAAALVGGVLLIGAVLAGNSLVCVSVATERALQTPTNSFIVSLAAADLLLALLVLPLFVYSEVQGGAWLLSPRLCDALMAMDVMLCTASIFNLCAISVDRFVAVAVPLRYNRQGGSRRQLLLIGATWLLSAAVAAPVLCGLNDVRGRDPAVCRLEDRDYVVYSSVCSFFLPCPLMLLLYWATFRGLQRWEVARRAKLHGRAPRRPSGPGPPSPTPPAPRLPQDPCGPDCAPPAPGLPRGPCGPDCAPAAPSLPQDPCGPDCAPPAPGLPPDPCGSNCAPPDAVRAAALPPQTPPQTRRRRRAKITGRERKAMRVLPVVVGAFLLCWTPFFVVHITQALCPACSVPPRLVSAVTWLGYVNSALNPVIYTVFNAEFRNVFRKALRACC
Nature of the series: DRUGMATRIX: Dopamine D4.2 radioligand binding (ligand: [3H] Spiperone). As to conditions: cho-k1; Not Active = under 50% inhibition at 10 µM. It is filed as cell membranes, CHO-K1, Membrane.

The target of a further series is Vasopressin V1a receptor (Homo sapiens, UniProt P37288). It counts as cell membranes, Membrane. As to conditions: hek293. Further: in other assays of this panel Not Active means under 50% inhibition at 10 µM.
In the next series the target is Cytochrome P450 2E1 (Homo sapiens, UniProt P05181). The following applies: bti-tn-5b1-4. Further: in other assays of this panel Not Active means under 50% inhibition at 10 µM.
Series [2] has as its target T4, Cysteinyl leukotriene receptor 1 (Homo sapiens, UniProt Q9Y271). Further: in other assays of this panel Not Active means under 50% inhibition at 10 µM.
T4 sequence (Q9Y271 whole entry): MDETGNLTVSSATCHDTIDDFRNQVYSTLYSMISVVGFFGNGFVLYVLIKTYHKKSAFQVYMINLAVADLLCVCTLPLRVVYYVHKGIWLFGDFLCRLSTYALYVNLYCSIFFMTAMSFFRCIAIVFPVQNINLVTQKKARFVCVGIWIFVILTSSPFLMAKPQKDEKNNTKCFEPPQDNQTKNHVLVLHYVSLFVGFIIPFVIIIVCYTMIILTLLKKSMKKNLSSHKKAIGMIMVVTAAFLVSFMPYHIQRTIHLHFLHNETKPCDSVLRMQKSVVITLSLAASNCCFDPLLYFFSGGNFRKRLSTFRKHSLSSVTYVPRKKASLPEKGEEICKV
It counts as cell membranes, CHO-K1, Membrane. The following applies: cho-k1.

The target in series [3] is Vascular endothelial growth factor receptor 1 (Homo sapiens, UniProt P17948). It counts as cell-based. The following applies: huvec. Further: in other assays of this panel Not Active means under 50% inhibition at 10 µM.
A further series has as its target Nitric oxide synthase 1 (Rattus norvegicus, UniProt P29476). It counts as tissue-based, Cerebellum. Further: in other assays of this panel Not Active means under 50% inhibition at 10 µM.
Series [4] has as its target Platelet-activating factor receptor (Homo sapiens, UniProt P25105). Nature of the series: biochemical. It is filed as tissue-based. As to conditions: platelet. Further: in other assays of this panel Not Active means under 50% inhibition at 10 µM.
Series [5] deals with Mitogen-activated protein kinase 3 (Homo sapiens, UniProt P27361). Nature of the series: DRUGMATRIX: Protein Serine/Threonine Kinase, ERK1 enzyme inhibition (substrate: Myelin Basic Protein). More on the design: species or system Escherichia coli. As to conditions: Not Active = under 50% inhibition at 10 µM.
The next series addresses T5, Adenosine receptor A3 (Homo sapiens, UniProt P0DMS8).
T5 sequence (P0DMS8 whole entry): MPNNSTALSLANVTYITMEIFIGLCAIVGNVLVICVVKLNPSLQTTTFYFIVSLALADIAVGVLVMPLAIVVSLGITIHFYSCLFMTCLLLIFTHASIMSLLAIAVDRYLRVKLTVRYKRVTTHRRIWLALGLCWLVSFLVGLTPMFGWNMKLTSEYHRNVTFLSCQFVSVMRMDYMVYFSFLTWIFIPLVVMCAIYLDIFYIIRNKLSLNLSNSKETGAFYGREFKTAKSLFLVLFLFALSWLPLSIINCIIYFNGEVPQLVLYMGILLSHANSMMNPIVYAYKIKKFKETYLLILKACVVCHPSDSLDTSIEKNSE
It counts as cell membranes, CHO-K1, Membrane. The following applies: cho-k1.

Series [6] concerns the target C-C chemokine receptor type 5 (Homo sapiens, UniProt P51681). It is filed as cell membranes, Membrane. The following applies: hek293. Further: in other assays of this panel Not Active means under 50% inhibition at 10 µM.
Another series deals with Cannabinoid receptor 1 (Homo sapiens, UniProt P21554). It is filed as cell membranes, Membrane. As to conditions: chem-1.
The nature of series [7]: DRUGMATRIX: GABAA, Muscimol, Central radioligand binding (ligand: [3H] Muscimol). It counts as cell membranes, Rattus norvegicus, Wistar, Brain, Membrane. The following applies: Not Active = under 50% inhibition at 10 µM.
Series [8] can be described thus: DRUGMATRIX: Sodium/nucleoside co-transporter radioligand binding (ligand: nitrobenzylthioinosine). The following applies: Not Active = under 50% inhibition at 10 µM. It counts as cell membranes, Cavia porcellus, Dunkin-Hartley, Cerebral cortex, Membrane.
The nature of series [9]: DRUGMATRIX: Imidazoline I2, Central radioligand binding (ligand: [3H] Idazoxan). It is filed as cell membranes, Rattus norvegicus, Wistar, Cerebral cortex, Membrane. The following applies: Not Active = under 50% inhibition at 10 µM.
The nature of series [10]: DRUGMATRIX: ATPase, Na+/K+ enzyme inhibition (substrate: ATP). It is filed as tissue-based, Sus scrofa, Heart. The following applies: Not Active = under 50% inhibition at 10 µM.

Chain of C-C chemokine receptor type 5 (P51681 whole entry): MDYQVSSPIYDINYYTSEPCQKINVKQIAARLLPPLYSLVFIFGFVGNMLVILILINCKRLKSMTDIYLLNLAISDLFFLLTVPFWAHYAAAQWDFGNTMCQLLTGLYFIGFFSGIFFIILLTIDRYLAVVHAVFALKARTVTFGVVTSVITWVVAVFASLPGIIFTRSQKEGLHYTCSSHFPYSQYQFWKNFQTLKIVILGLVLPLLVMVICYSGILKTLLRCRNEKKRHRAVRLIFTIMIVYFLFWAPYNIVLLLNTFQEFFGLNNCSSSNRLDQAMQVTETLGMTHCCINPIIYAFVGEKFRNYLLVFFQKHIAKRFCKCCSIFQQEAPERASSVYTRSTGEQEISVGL
Chain of Vasopressin V1a receptor (P37288 whole entry): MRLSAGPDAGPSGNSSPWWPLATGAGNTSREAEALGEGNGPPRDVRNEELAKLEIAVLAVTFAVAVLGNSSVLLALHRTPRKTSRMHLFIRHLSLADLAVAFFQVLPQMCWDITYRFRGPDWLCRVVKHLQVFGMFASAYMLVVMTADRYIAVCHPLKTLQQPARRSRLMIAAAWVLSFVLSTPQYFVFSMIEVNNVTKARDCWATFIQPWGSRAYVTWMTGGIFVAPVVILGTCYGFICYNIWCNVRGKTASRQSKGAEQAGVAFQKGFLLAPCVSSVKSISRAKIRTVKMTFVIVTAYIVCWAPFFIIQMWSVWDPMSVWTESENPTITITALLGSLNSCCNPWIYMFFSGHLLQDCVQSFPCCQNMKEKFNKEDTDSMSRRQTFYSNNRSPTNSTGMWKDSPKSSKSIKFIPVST
Chain of Nitric oxide synthase 1 (P29476 whole entry): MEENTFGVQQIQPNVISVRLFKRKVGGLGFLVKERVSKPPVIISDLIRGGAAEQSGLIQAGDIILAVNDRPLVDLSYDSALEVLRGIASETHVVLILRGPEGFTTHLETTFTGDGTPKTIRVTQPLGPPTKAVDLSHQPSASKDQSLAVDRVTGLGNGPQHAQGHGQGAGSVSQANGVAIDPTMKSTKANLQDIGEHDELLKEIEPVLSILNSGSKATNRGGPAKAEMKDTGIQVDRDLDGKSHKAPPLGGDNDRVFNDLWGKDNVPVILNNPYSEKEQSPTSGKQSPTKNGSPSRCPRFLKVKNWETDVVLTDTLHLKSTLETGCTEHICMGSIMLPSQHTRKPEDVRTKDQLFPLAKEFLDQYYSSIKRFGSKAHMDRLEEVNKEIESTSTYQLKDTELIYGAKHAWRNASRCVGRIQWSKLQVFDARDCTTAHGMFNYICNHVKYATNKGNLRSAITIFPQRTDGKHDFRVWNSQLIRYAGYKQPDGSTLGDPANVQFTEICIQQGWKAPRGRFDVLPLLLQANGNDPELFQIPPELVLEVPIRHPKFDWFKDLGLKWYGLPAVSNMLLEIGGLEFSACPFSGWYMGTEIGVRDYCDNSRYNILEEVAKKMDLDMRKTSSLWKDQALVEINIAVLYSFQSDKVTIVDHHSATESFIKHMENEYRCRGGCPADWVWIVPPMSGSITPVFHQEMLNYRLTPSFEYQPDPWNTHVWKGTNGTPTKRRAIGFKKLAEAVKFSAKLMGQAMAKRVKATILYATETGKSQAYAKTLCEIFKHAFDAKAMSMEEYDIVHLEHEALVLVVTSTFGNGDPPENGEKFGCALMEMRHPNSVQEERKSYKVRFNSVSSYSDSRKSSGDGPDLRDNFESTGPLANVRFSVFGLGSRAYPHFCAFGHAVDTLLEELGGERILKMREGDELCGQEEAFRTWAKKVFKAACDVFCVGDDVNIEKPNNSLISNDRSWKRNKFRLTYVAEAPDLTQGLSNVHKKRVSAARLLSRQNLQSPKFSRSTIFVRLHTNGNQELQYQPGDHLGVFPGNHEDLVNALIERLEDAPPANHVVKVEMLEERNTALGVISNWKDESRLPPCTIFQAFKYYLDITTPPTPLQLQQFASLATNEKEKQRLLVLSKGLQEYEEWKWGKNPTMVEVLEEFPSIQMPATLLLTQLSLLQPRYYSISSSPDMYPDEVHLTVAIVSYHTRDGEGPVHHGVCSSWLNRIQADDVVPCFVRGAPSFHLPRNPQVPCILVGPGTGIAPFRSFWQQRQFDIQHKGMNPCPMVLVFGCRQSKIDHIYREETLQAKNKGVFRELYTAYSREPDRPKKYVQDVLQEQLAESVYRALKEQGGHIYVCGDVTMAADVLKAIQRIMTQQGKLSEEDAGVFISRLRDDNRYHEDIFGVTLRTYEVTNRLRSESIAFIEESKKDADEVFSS
Chain of Vascular endothelial growth factor receptor 1 (P17948 whole entry): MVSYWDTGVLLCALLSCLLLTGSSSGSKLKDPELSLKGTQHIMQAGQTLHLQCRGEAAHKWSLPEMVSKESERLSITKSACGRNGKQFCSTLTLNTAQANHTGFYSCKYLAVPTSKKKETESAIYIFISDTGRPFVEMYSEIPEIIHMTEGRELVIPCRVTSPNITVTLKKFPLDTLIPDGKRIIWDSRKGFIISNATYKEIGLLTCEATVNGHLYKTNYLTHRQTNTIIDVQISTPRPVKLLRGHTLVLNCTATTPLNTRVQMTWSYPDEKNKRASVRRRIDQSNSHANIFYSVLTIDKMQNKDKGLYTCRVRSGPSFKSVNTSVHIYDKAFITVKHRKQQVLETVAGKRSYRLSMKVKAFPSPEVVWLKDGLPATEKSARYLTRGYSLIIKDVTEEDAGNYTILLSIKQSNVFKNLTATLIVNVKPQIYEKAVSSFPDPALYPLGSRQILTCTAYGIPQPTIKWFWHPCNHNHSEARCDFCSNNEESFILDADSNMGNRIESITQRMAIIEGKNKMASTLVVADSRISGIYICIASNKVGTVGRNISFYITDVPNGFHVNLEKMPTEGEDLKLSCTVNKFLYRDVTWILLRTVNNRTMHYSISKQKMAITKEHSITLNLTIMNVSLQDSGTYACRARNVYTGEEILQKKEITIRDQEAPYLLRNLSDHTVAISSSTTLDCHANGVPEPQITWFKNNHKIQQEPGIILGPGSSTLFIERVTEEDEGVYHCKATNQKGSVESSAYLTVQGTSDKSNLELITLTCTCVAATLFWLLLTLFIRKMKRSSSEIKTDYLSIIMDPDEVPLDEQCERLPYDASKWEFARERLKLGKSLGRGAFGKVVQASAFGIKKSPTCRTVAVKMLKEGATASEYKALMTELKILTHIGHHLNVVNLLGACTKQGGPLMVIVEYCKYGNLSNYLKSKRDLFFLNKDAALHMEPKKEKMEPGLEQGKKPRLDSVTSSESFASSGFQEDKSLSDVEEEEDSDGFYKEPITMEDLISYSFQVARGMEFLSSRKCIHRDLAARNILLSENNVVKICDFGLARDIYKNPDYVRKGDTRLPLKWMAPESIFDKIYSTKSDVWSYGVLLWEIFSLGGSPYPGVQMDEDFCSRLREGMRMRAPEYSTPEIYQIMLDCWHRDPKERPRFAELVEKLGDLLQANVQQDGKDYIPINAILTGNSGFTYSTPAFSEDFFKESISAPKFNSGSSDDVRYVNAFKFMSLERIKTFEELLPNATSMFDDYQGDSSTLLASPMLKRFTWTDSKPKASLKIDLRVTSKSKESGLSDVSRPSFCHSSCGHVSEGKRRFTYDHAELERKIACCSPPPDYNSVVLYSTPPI
Chain of Mitogen-activated protein kinase 3 (P27361 whole entry): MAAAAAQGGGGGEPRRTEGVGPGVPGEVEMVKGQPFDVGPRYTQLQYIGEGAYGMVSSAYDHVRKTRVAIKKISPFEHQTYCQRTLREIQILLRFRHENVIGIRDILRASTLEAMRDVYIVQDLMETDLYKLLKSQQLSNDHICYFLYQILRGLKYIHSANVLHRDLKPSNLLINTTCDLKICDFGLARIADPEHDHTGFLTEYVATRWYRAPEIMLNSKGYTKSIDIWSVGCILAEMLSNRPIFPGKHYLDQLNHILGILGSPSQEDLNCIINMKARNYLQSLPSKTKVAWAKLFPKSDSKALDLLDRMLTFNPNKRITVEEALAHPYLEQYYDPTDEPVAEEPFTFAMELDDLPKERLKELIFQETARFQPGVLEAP
Chain of Cannabinoid receptor 1 (P21554 whole entry): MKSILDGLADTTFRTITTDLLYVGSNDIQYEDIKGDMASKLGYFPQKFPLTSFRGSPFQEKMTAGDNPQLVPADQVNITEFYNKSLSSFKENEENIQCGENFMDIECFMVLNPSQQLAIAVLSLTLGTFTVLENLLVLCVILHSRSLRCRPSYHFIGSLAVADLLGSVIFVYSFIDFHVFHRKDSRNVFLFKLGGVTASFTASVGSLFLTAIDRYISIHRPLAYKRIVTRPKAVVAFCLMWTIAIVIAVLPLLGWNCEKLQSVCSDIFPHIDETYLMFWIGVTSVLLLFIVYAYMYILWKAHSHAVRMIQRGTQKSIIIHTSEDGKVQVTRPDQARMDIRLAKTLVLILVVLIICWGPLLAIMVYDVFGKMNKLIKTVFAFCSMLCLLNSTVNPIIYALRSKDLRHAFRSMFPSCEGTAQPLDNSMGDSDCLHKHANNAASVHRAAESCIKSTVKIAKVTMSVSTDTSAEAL
Chain of Cytochrome P450 2E1 (P05181 whole entry): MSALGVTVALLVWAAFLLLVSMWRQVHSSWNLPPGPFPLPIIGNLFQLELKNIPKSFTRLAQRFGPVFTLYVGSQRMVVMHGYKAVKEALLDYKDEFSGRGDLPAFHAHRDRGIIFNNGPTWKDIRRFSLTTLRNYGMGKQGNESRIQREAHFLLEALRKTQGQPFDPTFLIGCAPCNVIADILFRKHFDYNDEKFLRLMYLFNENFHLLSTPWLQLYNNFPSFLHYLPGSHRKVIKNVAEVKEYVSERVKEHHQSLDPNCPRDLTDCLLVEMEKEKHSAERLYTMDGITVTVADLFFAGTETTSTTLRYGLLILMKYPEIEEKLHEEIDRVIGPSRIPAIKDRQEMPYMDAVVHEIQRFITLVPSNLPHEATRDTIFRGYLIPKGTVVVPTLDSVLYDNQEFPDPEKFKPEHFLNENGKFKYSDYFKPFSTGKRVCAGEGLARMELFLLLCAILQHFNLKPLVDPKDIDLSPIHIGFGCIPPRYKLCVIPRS

With `CN1[C@@H]2CC[C@H]1C[C@@H](OC(=O)c1c[nH]c3ccccc13)C2` [TROPISETRON], the IC50 entry (against Histamine H2 receptor; in series [1]; against Substance-K receptor; at D(4) dopamine receptor; on Vasopressin V1a receptor; on Cytochrome P450 2E1) was “Not Active” throughout. The IC50 result (in series [2]; in [3]; on Nitric oxide synthase 1; in series [4]; in series [5]; against Adenosine receptor A3) was “Not Active” throughout. Further, the IC50 result in series [6] was “Not Active”; at Cannabinoid receptor 1, “Not Active”; in series [7] (read-out: IC50), 3.02 µM; in series [8] it was “Not Active”; in series [9], “Not Active”; in series [10], “Not Active”. Further, the Ki result at Cytochrome P450 2E1 is “Not Active”; in series [7] (read-out: Ki), 2.4 µM; in [8], “Not Active”; in series [9] it was “Not Active”; in series [10], “Not Active”.
As for `COc1cc(C(=O)NC2CCCNC2)cc(OC)c1OC` (configuration not stated) [TROXIPIDE], the IC50 entry (at Histamine H2 receptor; in series [1]; against Substance-K receptor; on D(4) dopamine receptor; at Vasopressin V1a receptor; against Cytochrome P450 2E1) was “Not Active” throughout. Further, the IC50 result (in series [2]; in [3]; on Nitric oxide synthase 1; in [4]; in series [5]; at Adenosine receptor A3) was “Not Active” each time. Further, the IC50 entry (in series [6]; on Cannabinoid receptor 1; in series [7]; in [8]; in series [9]; in series [10]) was “Not Active” each time. The Ki entry (on Cytochrome P450 2E1; in series [7]; in series [8]; in series [9]; in [10]) was “Not Active” throughout.
For the compound `CC(C)[C@H](N)C(=O)OCCOCn1cnc2c(=O)nc(N)[nH]c21` [VALACYCLOVIR], the IC50 entry (against Histamine H2 receptor; in series [1]; against Substance-K receptor; at D(4) dopamine receptor; on Vasopressin V1a receptor; against Cytochrome P450 2E1) was “Not Active” each time. Further, the IC50 entry (in [2]; in [3]; against Nitric oxide synthase 1; in [4]; in series [5]; at Adenosine receptor A3) was “Not Active” each time. Besides, the half-maximal inhibitory concentration (IC50) entry (in series [6]; against Cannabinoid receptor 1; in series [7]; in [8]; in [9]; in [10]) was “Not Active” each time. Besides, the Ki result (on Cytochrome P450 2E1; in series [7]; in series [8]; in series [9]; in [10]) was “Not Active” throughout.
With `CN[C@H](CC(C)C)C(=O)N[C@H]1C(=O)N[C@@H](CC(N)=O)C(=O)N[C@H]2C(=O)N[C@H]3C(=O)N[C@H](C(=O)N[C@H](C(=O)O)c4cc(O)cc(O)c4-c4cc3ccc4O)[C@H](O)c3ccc(c(Cl)c3)Oc3cc2cc(c3O[C@@H]2O[C@H](CO)[C@@H](O)[C@H](O)[C@H]2O[C@H]2C[C@](C)(N)[C@H](O)[C@H](C)O2)Oc2ccc(cc2Cl)[C@H]1O` [VANCOMYCIN], the IC50 result (at Histamine H2 receptor; in [1]; against Substance-K receptor; at D(4) dopamine receptor; against Vasopressin V1a receptor; at Cytochrome P450 2E1) was “Not Active” each time. In addition, the IC50 entry (in series [2]; in series [3]; at Nitric oxide synthase 1; in series [4]; in series [5]; against Adenosine receptor A3) was “Not Active” throughout. Further, the IC50 result (in [6]; against Cannabinoid receptor 1; in series [7]; in series [8]; in series [9]; in series [10]) was “Not Active” in each case. Moreover, the Ki entry (on Cytochrome P450 2E1; in series [7]; in [8]; in series [9]; in series [10]) was “Not Active” each time.

In general, IC50 refers to the concentration needed to halve the response being measured. By Ki is commonly meant a measure of affinity in units of concentration, obtained from inhibition or displacement.
